Each structure is given as a SMILES string.

T1 sequence (O75417 1-899): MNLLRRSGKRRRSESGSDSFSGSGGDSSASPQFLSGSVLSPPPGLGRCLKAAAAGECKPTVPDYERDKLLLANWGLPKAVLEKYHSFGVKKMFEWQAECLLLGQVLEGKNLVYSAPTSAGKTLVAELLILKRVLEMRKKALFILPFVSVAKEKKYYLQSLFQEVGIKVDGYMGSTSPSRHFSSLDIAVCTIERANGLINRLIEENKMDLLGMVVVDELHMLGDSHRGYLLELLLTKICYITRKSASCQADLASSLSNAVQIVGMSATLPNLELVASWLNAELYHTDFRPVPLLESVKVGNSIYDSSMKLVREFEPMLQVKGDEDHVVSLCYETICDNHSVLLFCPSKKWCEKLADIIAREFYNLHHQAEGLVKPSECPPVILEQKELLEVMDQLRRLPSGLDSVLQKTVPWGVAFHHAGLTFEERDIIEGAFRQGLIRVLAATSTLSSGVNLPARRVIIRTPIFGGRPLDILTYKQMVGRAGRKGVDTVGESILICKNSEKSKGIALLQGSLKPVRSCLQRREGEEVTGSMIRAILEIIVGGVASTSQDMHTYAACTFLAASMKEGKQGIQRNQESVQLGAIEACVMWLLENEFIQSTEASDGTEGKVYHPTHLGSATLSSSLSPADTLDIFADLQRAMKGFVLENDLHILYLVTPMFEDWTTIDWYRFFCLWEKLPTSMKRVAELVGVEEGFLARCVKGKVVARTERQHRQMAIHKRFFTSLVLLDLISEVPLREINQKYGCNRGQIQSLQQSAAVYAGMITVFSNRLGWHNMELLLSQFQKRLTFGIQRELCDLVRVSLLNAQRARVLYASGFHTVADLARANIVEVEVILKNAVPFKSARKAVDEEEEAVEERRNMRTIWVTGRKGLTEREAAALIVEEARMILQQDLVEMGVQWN

This experiment addresses T1, Pol theta (1-899) (Homo sapiens, UniProt O75417).
T1 construct: Pol theta (1-899) (5 nM) in assay buffer
As to the kind of experiment: Pol theta ATPase activity, NADH oxidation-coupled enzymatic assay (ATPase NADH coupling: Standard Screening: hPolQ). It is filed as biochemical. The settings on record: Pol theta (1-899) 5 nM, NADH oxidation-coupled ATPase assay; compounds of Table 3. The procedure, abridged:
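Rates of ATP hydrolysis taken from 60-min A340 traces of NADH oxidation via PK/LDH coupling, then fit four-parameter for IC50, Hill slope and max inhibition. Enzyme (5 nM, 1-899) and compounds preincubated 15 min before ATP 100 μM and 50-thymine ssDNA 300 nM (stock, equal volume added).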
A word on the IC50: it is the midpoint of a concentration-inhibition curve. Regarding `COc1cnc(Br)cc1-c1cc(C)ncc1C(=O)Nc1nnc(O[C@H]2CCC[C@H](O)C2)s1` [Example 271, 2′-bromo-N-(5-(((1S,3S)-3-hydroxycyclohexyl)oxy)-1,3,4-thiadiazol-2-yl)-5′-methoxy-6-methyl-[4,4′-bipyridine]-3-carboxamide], the IC50 is at most 200 nM.

For the compound `COc1nnc(NC(=O)c2cnc(C)cc2-c2cc(Cl)c(S(C)(=O)=O)cc2OC)s1` [Example 272, 4-(5-chloro-2-methoxy-4-(methylsulfonyl)phenyl)-N-(5-methoxy-1,3,4-thiadiazol-2-yl)-6-methylnicotinamide], the IC50 is at most 200 nM. As to `COc1nnc(NC(=O)c2cc(OC(C)C)ncc2-c2cc(Cl)ncc2OC)s1` [Example 273, 2′-chloro-6-isopropoxy-5′-methoxy-N-(5-methoxy-1,3,4-thiadiazol-2-yl)-[3,4′-bipyridine]-4-carboxamide], the IC50 lay within 200 to 500 nM. For the compound `COc1cnc(Cl)cc1-c1cc(C)ncc1C(=O)Nc1nnc(O[C@@H]2CCCN([C@H]3CCOC3)C2)s1` [Example 275, 2′-chloro-5′-methoxy-6-methyl-N-(5-(((R)-1-((S)-tetrahydrofuran-3-yl)piperidin-3-yl)oxy)-1,3,4-thiadiazol-2-yl)-[4,4′-bipyridine]-3-carboxamide], the IC50 is at most 200 nM.

Take `CCOc1cc(C(=O)Nc2nnc(OC)s2)c(-c2cc(Cl)ncc2OC)cn1` [Example 276, 2′-chloro-6-ethoxy-5′-methoxy-N-(5-methoxy-1,3,4-thiadiazol-2-yl)-[3,4′-bipyridine]-4-carboxamide]: the IC50 is at most 200 nM. For the compound `COc1cnc(Cl)cc1-c1cc(C)ncc1C(=O)Nc1nnc(OC2CCN(CC(F)(F)F)CC2)s1` [Example 278, 2′-chloro-5′-methoxy-6-methyl-N-(5-((1-(2,2,2-trifluoroethyl)piperidin-4-yl)oxy)-1,3,4-thiadiazol-2-yl)-[4,4′-bipyridine]-3-carboxamide], the IC50 lay within 200 to 500 nM.

Take `COc1nnc(NC(=O)c2ccc(C)cc2-c2cc(Cl)ncc2OC)s1` [Example 279, 2-(2-chloro-5-methoxypyridin-4-yl)-N-(5-methoxy-1,3,4-thiadiazol-2-yl)-4-methylbenzamide]: the 50% inhibitory concentration (IC50) is at most 200 nM.

As to `COc1cnc(Cl)cc1-c1cc(C)ncc1C(=O)Nc1nnc(OC2CCN(C3COC3)CC2)s1` [Example 280, 2′-chloro-5′-methoxy-6-methyl-N-(5-((1-(oxetan-3-yl)piperidin-4-yl)oxy)-1,3,4-thiadiazol-2-yl)-[4,4′-bipyridine]-3-carboxamide], the IC50 is at most 200 nM. With `COc1nnc(NC(=O)c2cnc(C(F)F)cc2-c2cc(Cl)ncc2OC)s1` [Example 281, 2′-chloro-6-(difluoromethyl)-5′-methoxy-N-(5-methoxy-1,3,4-thiadiazol-2-yl)-[4,4′-bipyridine]-3-carboxamide] the figure was at most 200 nM. Regarding `COc1nnc(NC(=O)c2cc(F)c(C)cc2-c2cc(Cl)ncc2OC)s1` [Example 282, 2-(2-chloro-5-methoxypyridin-4-yl)-5-fluoro-N-(5-methoxy-1,3,4-thiadiazol-2-yl)-4-methyl benzamide], the half-maximal inhibitory concentration (IC50) was at most 200 nM. As for `COc1cnc(Br)cc1-c1cc(C)ncc1C(=O)Nc1nnc(O[C@@H]2CCC[C@@H](O)C2)s1` [Example 284, 2′-bromo-N-(5-(((1R,3R)-3-hydroxycyclohexyl)oxy)-1,3,4-thiadiazol-2-yl)-5′-methoxy-6-methyl-[4,4′-bipyridine]-3-carboxamide], the IC50 was at most 200 nM. Compound `COc1nnc(NC(=O)c2cc(-c3cc(Cl)ncc3OC)ncc2C)s1` [Example 285, 2′-chloro-5′-methoxy-N-(5-methoxy-1,3,4-thiadiazol-2-yl)-5-methyl-[2,4′-bipyridine]-4-carboxamide] yielded an IC50 of 1000 to 10000 nM. With `COc1nnc(NC(=O)c2ccc(N)cc2-c2cc(Cl)ncc2OC)s1` [Example 286, 4-amino-2-(2-chloro-5-methoxypyridin-4-yl)-N-(5-methoxy-1,3,4-thiadiazol-2-yl)benzamide] the figure was at most 200 nM; with `COc1cnc(Cl)cc1-c1cc(C)ncc1C(=O)Nc1nnc(OC2(C3CCOC3)CC2)s1` (centres unmarked) [Example 288, 2′-chloro-5′-methoxy-6-methyl-N-(5-(1-(tetrahydrofuran-3-yl)cyclopropoxy)-1,3,4-thiadiazol-2-yl)-[4,4′-bipyridine]-3-carboxamide], at most 200 nM; with `COc1nnc(NC(=O)c2ccnc(C#N)c2-c2cc(Cl)ncc2OC)s1` [Example 289, 2′-chloro-2-cyano-5′-methoxy-N-(5-methoxy-1,3,4-thiadiazol-2-yl)-[3,4′-bipyridine]-4-carboxamide], 1000 to 10000 nM.

`COc1nnc(NC(=O)c2cc(C#N)ncc2-c2cc(Cl)ncc2OC)s1` [Example 290, 2′-chloro-6-cyano-5′-methoxy-N-(5-methoxy-1,3,4-thiadiazol-2-yl)-[3,4′-bipyridine]-4-carboxamide] registered an IC50 of 200 to 500 nM. Compound `COc1nnc(NC(=O)c2ccccc2-c2cc(Cl)ncc2OC)s1` [Example 291, 2-(2-chloro-5-methoxypyridin-4-yl)-N-(5-methoxy-1,3,4-thiadiazol-2-yl)benzamide] registered an IC50 of at most 200 nM.

Compound `COc1nnc(NC(=O)c2nnc(C)cc2-c2cc(Cl)ncc2OC)s1` [Example 294, 4-(2-chloro-5-methoxypyridin-4-yl)-N-(5-methoxy-1,3,4-thiadiazol-2-yl)-6-methylpyridazine-3-carboxamide] had an IC50 of 200 to 500 nM.

Consider `COc1cnc(Cl)cc1-c1cc(C)ncc1C(=O)Nc1nnc(OC2CCC23CCOC3)s1` (centres unmarked) [Example 296, N-(5-((6-oxaspiro[3.4]octan-1-yl)oxy)-1,3,4-thiadiazol-2-yl)-2′-chloro-5′-methoxy-6-methyl-[4,4′-bipyridine]-3-carboxamide], for which the IC50 was at most 200 nM.

On to `COc1nnc(NC(=O)c2ccc([N+](=O)[O-])cc2-c2cc(Cl)ncc2OC)s1` [Example 300, 2-(2-chloro-5-methoxypyridin-4-yl)-N-(5-methoxy-1,3,4-thiadiazol-2-yl)-4-nitrobenzamide], for which the IC50 is at most 200 nM. In turn, `COc1nnc(NC(=O)c2cc(OC)c(C)cc2-c2cc(Cl)ncc2OC)s1` [Example 301, 2-(2-chloro-5-methoxypyridin-4-yl)-5-methoxy-N-(5-methoxy-1,3,4-thiadiazol-2-yl)-4-methylbenzamide] yielded an IC50 of at most 200 nM.

For the compound `COc1nnc(NC(=O)c2cc(CC#N)ncc2-c2cc(Cl)ncc2OC)s1` [Example 302, 2′-chloro-6-(cyanomethyl)-5′-methoxy-N-(5-methoxy-1,3,4-thiadiazol-2-yl)-[3,4′-bipyridine]-4-carboxamide], the IC50 is at most 200 nM. On to `COc1nnc(NC(=O)c2cnc(C)cc2-c2ccc(P(C)(C)=O)cc2OC)s1` [Example 303, 4-(4-(dimethylphosphoryl)-2-methoxyphenyl)-N-(5-methoxy-1,3,4-thiadiazol-2-yl)-6-methylnicotinamide], for which the IC50 was 1000 to 10000 nM. With `COc1cnc(Cl)cc1-c1cc(C)ncc1C(=O)Nc1nnc(O[C@H]2CN3CCC2CC3)s1` [Example 306, (R)-2′-chloro-5′-methoxy-6-methyl-N-(5-(quinuclidin-3-yloxy)-1,3,4-thiadiazol-2-yl)-[4,4′-bipyridine]-3-carboxamide] the figure was 1000 to 10000 nM; with `COc1cnc(Cl)cc1-c1cc(C)ncc1C(=O)Nc1nnc(O[C@H]2CCCN([C@@H]3CCOC3)C2)s1` [Example 309, 2′-chloro-5′-methoxy-6-methyl-N-(5-(((S)-1-((R)-tetrahydrofuran-3-yl)piperidin-3-yl)oxy)-1,3,4-thiadiazol-2-yl)-[4,4′-bipyridine]-3-carboxamide], at most 200 nM. With `COc1nnc(NC(=O)c2cc(N(C)C)ncc2-c2cc(Cl)ncc2OC)s1` [Example 311, 2′-chloro-6-(dimethylamino)-5′-methoxy-N-(5-methoxy-1,3,4-thiadiazol-2-yl)-[3,4′-bipyridine]-4-carboxamide] the figure was 200 to 500 nM; with `COc1cnc(C)c(F)c1-c1cc(C)ncc1C(=O)Nc1nnc(O[C@H]2CC[C@H](CO)CC2)s1` [Example 314, 3′-fluoro-N-(5-(((1r,4r)-4-(hydroxymethyl)cyclohexyl)oxy)-1,3,4-thiadiazol-2-yl)-5′-methoxy-2′,6-dimethyl-[4,4′-bipyridine]-3-carboxamide], at most 200 nM. Next, `COc1cnc(Br)cc1-c1cc(C)ncc1C(=O)Nc1nnc(O[C@H]2CC[C@H](CO)CC2)s1` [Example 315, 2′-bromo-N-(5-(((1r,4r)-4-(hydroxymethyl)cyclohexyl)oxy)-1,3,4-thiadiazol-2-yl)-5′-methoxy-6-methyl-[4,4′-bipyridine]-3-carboxamide]: at most 200 nM; `COc1cnc(Cl)c(F)c1-c1cc(C)ncc1C(=O)Nc1nnc(O[C@H]2CC[C@H](CO)CC2)s1` [Example 316, 2′-chloro-3′-fluoro-N-(5-(((1r,4r)-4-(hydroxymethyl)cyclohexyl)oxy)-1,3,4-thiadiazol-2-yl)-5′-methoxy-6-methyl-[4,4′-bipyridine]-3-carboxamide]: at most 200 nM. In turn, `COc1cnc(Cl)cc1-c1cc(C)ncc1C(=O)Nc1nnc(OCCN(C)CC(F)(F)F)s1` [Example 317, 2′-chloro-5′-methoxy-6-methyl-N-(5-(2-(methyl(2,2,2-trifluoroethyl)amino)ethoxy)-1,3,4-thiadiazol-2-yl)-[4,4′-bipyridine]-3-carboxamide] returned an IC50 of at most 200 nM. `COc1nnc(NC(=O)c2cnc(C)cc2-c2cc(Cl)cc3c2OCCN3)s1` [Example 320, 4-(6-chloro-3,4-dihydro-2H-benzo[b][1,4]oxazin-8-yl)-N-(5-methoxy-1,3,4-thiadiazol-2-yl)-6-methylnicotinamide] had a half-maximal inhibitory concentration (IC50) of at most 200 nM.

In the case of `COc1nnc(NC(=O)c2cc(N3CCC3)ncc2-c2cc(Cl)ncc2OC)s1` [Example 323, 6-(azetidin-1-yl)-2′-chloro-5′-methoxy-N-(5-methoxy-1,3,4-thiadiazol-2-yl)-[3,4′-bipyridine]-4-carboxamide], the IC50 was at most 200 nM.

Source of the values: US20240287080A1 (IDEAYA Biosciences Inc., priority 2021, published 2024).
